Results from PubChem BioAssay (NCI).
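A five-concentration, 48-hour dose response in 96-well plates underlies each endpoint, interpolated linearly between surrounding concentrations. GI50: concentration for 50% inhibition of growth. TGI marks complete inhibition of growth.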

What was measured:
Assay in all cases: inhibition of tumour cell growth, NCI panel, 48 h
MALME-3M melanoma = test system: MALME-3M melanoma
K-562 leukemia = test system: K-562 leukemia
IGROV1 ovarian = test system: IGROV1 ovarian
HT29 colon = test system: HT29 colon
MDA-MB-231 breast = test system: MDA-MB-231 breast
M14 melanoma = test system: M14 melanoma
U251 CNS = test system: U251 CNS
SW-620 colon = test system: SW-620 colon
SN12C renal = test system: SN12C renal
SNB-19 CNS = test system: SNB-19 CNS

CO/N=C(\COc1ccc2oc(-c3ccccc3)cc(=O)c2c1)c1ccc(F)cc1
GI50 (MALME-3M melanoma): 30.3 µM
TGI (MALME-3M melanoma): 67.1 µM
GI50 (K-562 leukemia): 81.2 µM
TGI (K-562 leukemia): > 100 µM
GI50 (IGROV1 ovarian): 15.2 µM
TGI (IGROV1 ovarian): 35.9 µM
GI50 (HT29 colon): 31.4 µM
TGI (HT29 colon): > 100 µM
GI50 (MDA-MB-231 breast): 18.7 µM
TGI (MDA-MB-231 breast): 39 µM
GI50 (M14 melanoma): 32.2 µM
TGI (M14 melanoma): > 100 µM
GI50 (U251 CNS): 18 µM
TGI (U251 CNS): 35.1 µM
GI50 (SW-620 colon): 30.3 µM
TGI (SW-620 colon): > 100 µM
GI50 (SN12C renal): 16.9 µM
TGI (SN12C renal): 35 µM

COC(=O)C1CCc2nnc(-c3ccccc3)n21 (configuration not stated)
TGI (MALME-3M melanoma): > 100 µM
TGI (K-562 leukemia): > 100 µM
TGI (IGROV1 ovarian): > 100 µM
TGI (HT29 colon): > 100 µM
TGI (M14 melanoma): > 100 µM
TGI (U251 CNS): > 100 µM
TGI (SW-620 colon): > 100 µM
TGI (SNB-19 CNS): > 100 µM
TGI (SN12C renal): > 100 µM

c1ccc(OC2=NC3=S(S2)SC(Oc2ccccc2)=N3)cc1
TGI (MALME-3M melanoma): 41.7 µM
TGI (K-562 leukemia): 38 µM
TGI (IGROV1 ovarian): 44.7 µM
TGI (HT29 colon): 40.2 µM
TGI (M14 melanoma): 34.8 µM
TGI (U251 CNS): 26.8 µM
TGI (SW-620 colon): 35.2 µM
TGI (SNB-19 CNS): 45.1 µM
TGI (SN12C renal): 40.8 µM

CC[PH+](CC)CC.[Cl][Au]
GI50 (MALME-3M melanoma): 1.27 µM
TGI (MALME-3M melanoma): 2.56 µM
GI50 (K-562 leukemia): 0.319 µM
TGI (K-562 leukemia): 1.19 µM
GI50 (IGROV1 ovarian): 2.64 µM
TGI (IGROV1 ovarian): 7.15 µM
GI50 (HT29 colon): 3.84 µM
TGI (HT29 colon): 8.96 µM
GI50 (M14 melanoma): 1.17 µM
TGI (M14 melanoma): 2.53 µM
GI50 (U251 CNS): 1.95 µM
TGI (U251 CNS): 5.14 µM
GI50 (SW-620 colon): 0.567 µM
TGI (SW-620 colon): 1.98 µM
GI50 (SNB-19 CNS): 2.26 µM
TGI (SNB-19 CNS): 6.14 µM
GI50 (SN12C renal): 1.82 µM
TGI (SN12C renal): 3.55 µM

CC(=O)[CH-]C(=O)c1ccccc1.CC(=O)[CH-]C(=O)c1ccccc1.[O-]c1ccc2c(c1)OCO2.[O-]c1ccc2c(c1)OCO2.[Ti+4]
GI50 (MALME-3M melanoma): 23.1 µM
TGI (MALME-3M melanoma): 50.2 µM
GI50 (K-562 leukemia): 31.5 µM
TGI (K-562 leukemia): > 100 µM
GI50 (IGROV1 ovarian): 34.5 µM
TGI (IGROV1 ovarian): > 100 µM
GI50 (HT29 colon): 26.8 µM
TGI (HT29 colon): > 100 µM
GI50 (M14 melanoma): 20.2 µM
TGI (M14 melanoma): 44.4 µM
GI50 (U251 CNS): 22.2 µM
TGI (U251 CNS): > 100 µM
GI50 (SW-620 colon): 32.1 µM
TGI (SW-620 colon): > 100 µM
GI50 (SNB-19 CNS): 20.8 µM
TGI (SNB-19 CNS): 69.7 µM
GI50 (SN12C renal): 43.9 µM
TGI (SN12C renal): > 100 µM

CC(=O)[O-].N.N.N.N.[Co+3].[O-][Cl+3]([O-])([O-])[O-].[OH3+]
GI50 (MALME-3M melanoma): > 100 µM
TGI (MALME-3M melanoma): > 100 µM
GI50 (K-562 leukemia): > 100 µM
TGI (K-562 leukemia): > 100 µM
GI50 (IGROV1 ovarian): > 100 µM
TGI (IGROV1 ovarian): > 100 µM
GI50 (HT29 colon): > 100 µM
TGI (HT29 colon): > 100 µM
GI50 (M14 melanoma): > 100 µM
TGI (M14 melanoma): > 100 µM
GI50 (U251 CNS): > 100 µM
TGI (U251 CNS): > 100 µM
GI50 (SW-620 colon): > 100 µM
TGI (SW-620 colon): > 100 µM
GI50 (SNB-19 CNS): > 100 µM
TGI (SNB-19 CNS): > 100 µM
GI50 (SN12C renal): > 100 µM
TGI (SN12C renal): > 100 µM

C[C@H]1C=C2C(=O)O[C@H]3CC[C@@H](C1)[C@@]23O
TGI (MALME-3M melanoma): 20 µM
TGI (K-562 leukemia): 8.26 µM
TGI (IGROV1 ovarian): 19 µM
TGI (HT29 colon): 16.9 µM
TGI (M14 melanoma): 14.7 µM
TGI (U251 CNS): 19.5 µM
TGI (SW-620 colon): 10.3 µM
TGI (SNB-19 CNS): 30.6 µM
TGI (SN12C renal): 6.76 µM

CC(=O)Oc1ccc2c(c1)C(=O)c1nc(C)c(C)nc1C2=O
TGI (MALME-3M melanoma): 38 µM
TGI (K-562 leukemia): > 100 µM
TGI (IGROV1 ovarian): > 100 µM
TGI (HT29 colon): > 91.7 µM
TGI (M14 melanoma): > 100 µM
TGI (U251 CNS): > 100 µM
TGI (SW-620 colon): > 100 µM
TGI (SNB-19 CNS): > 93.8 µM
TGI (SN12C renal): > 100 µM

COc1ccc2c(c1)CCc1c-2n[nH]c1-c1[nH]nc2c1CCc1cc(OC)ccc1-2
TGI (MALME-3M melanoma): > 100 µM
TGI (K-562 leukemia): > 100 µM
TGI (IGROV1 ovarian): > 100 µM
TGI (HT29 colon): > 100 µM
TGI (M14 melanoma): > 100 µM
TGI (U251 CNS): > 100 µM
TGI (SW-620 colon): > 100 µM
TGI (SNB-19 CNS): > 100 µM
TGI (SN12C renal): > 100 µM

COCCNc1cncc(C(N)=O)c1
TGI (K-562 leukemia): > 100 µM
TGI (IGROV1 ovarian): > 100 µM
TGI (HT29 colon): > 100 µM
TGI (MDA-MB-231 breast): > 100 µM
TGI (M14 melanoma): > 100 µM
TGI (U251 CNS): > 100 µM
TGI (SW-620 colon): > 100 µM
TGI (SNB-19 CNS): > 100 µM
TGI (SN12C renal): > 100 µM

N#Cc1cccc(C2C3=C(COC3=O)N(CCO)c3cc4c(cc32)OCO4)c1 (configuration not stated)
GI50 (K-562 leukemia): 0.294 µM
TGI (K-562 leukemia): > 50 µM
GI50 (IGROV1 ovarian): 8.08 µM
TGI (IGROV1 ovarian): > 50 µM
GI50 (HT29 colon): 1.49 µM
TGI (HT29 colon): > 50 µM
GI50 (MDA-MB-231 breast): 2.42 µM
TGI (MDA-MB-231 breast): > 50 µM
GI50 (M14 melanoma): 0.806 µM
TGI (M14 melanoma): > 50 µM
GI50 (U251 CNS): 2.3 µM
TGI (U251 CNS): > 50 µM
GI50 (SW-620 colon): 1.53 µM
TGI (SW-620 colon): > 50 µM
GI50 (SNB-19 CNS): 2.69 µM
TGI (SNB-19 CNS): > 50 µM
GI50 (SN12C renal): 3.81 µM
TGI (SN12C renal): > 50 µM

COc1ccc([C@@H]2OC(=O)C3C2C(=O)O[C@H]3c2ccc(OC)c(OC)c2)cc1OC (some centres not stated)
TGI (MALME-3M melanoma): > 100 µM
TGI (K-562 leukemia): > 100 µM
TGI (IGROV1 ovarian): > 100 µM
TGI (HT29 colon): > 100 µM
TGI (M14 melanoma): > 100 µM
TGI (U251 CNS): > 100 µM
TGI (SW-620 colon): > 100 µM
TGI (SNB-19 CNS): > 100 µM
TGI (SN12C renal): > 100 µM

CN(C)CCCNc1nc2ccccc2c2[nH]c3ccccc3c12
GI50 (K-562 leukemia): 1.64 µM
TGI (K-562 leukemia): 22.2 µM
GI50 (IGROV1 ovarian): 1.39 µM
TGI (IGROV1 ovarian): 18.4 µM
GI50 (HT29 colon): 0.163 µM
TGI (HT29 colon): 33 µM
GI50 (MDA-MB-231 breast): 0.907 µM
TGI (MDA-MB-231 breast): 2.16 µM
GI50 (M14 melanoma): 1.11 µM
TGI (M14 melanoma): 2.46 µM
GI50 (U251 CNS): 0.679 µM
TGI (U251 CNS): 2.59 µM
GI50 (SW-620 colon): 0.387 µM
TGI (SW-620 colon): 7.21 µM
GI50 (SNB-19 CNS): 1.57 µM
TGI (SNB-19 CNS): 6.2 µM
GI50 (SN12C renal): 0.639 µM
TGI (SN12C renal): 2.26 µM

COc1ccc2c(c1)CN1CCc3c(cc(OC)c(OC)c3OC)C1C2 (configuration not stated)
TGI (MALME-3M melanoma): > 100 µM
TGI (K-562 leukemia): > 100 µM
TGI (IGROV1 ovarian): > 100 µM
TGI (HT29 colon): > 100 µM
TGI (M14 melanoma): > 100 µM
TGI (U251 CNS): > 100 µM
TGI (SW-620 colon): > 100 µM
TGI (SNB-19 CNS): > 100 µM
TGI (SN12C renal): > 100 µM

CC1=CCCC2C(C=O)(C1)CC(C)C2(CO)CC/C(=C/CO)CO (configuration not stated)
TGI (MALME-3M melanoma): > 100 µM
TGI (K-562 leukemia): > 100 µM
TGI (IGROV1 ovarian): > 100 µM
TGI (HT29 colon): > 100 µM
TGI (M14 melanoma): > 100 µM
TGI (U251 CNS): > 100 µM
TGI (SW-620 colon): > 100 µM
TGI (SN12C renal): > 100 µM

CCCCn1c(=O)c(/C=C/C(=O)/C=C/c2cc3ccccc3n(CCCC)c2=O)cc2ccccc21
GI50 (MALME-3M melanoma): 2.29 µM
TGI (MALME-3M melanoma): 5.33 µM
GI50 (IGROV1 ovarian): 1.46 µM
TGI (IGROV1 ovarian): 3.42 µM
GI50 (HT29 colon): 0.316 µM
TGI (HT29 colon): 0.922 µM
GI50 (MDA-MB-231 breast): 1.84 µM
TGI (MDA-MB-231 breast): 3.37 µM
GI50 (U251 CNS): 1.03 µM
TGI (U251 CNS): 2.24 µM
GI50 (SW-620 colon): 0.859 µM
TGI (SW-620 colon): 2.84 µM
GI50 (SNB-19 CNS): 1.63 µM
TGI (SNB-19 CNS): 3.24 µM
GI50 (SN12C renal): 2.21 µM
TGI (SN12C renal): 5.2 µM

CCC(CO)Nc1nc2c(c(=O)n(C)c(=O)n2C)n1CCO (configuration not stated)
TGI (MALME-3M melanoma): > 100 µM
TGI (K-562 leukemia): > 100 µM
TGI (IGROV1 ovarian): > 100 µM
TGI (HT29 colon): > 100 µM
TGI (U251 CNS): > 100 µM
TGI (SW-620 colon): > 100 µM
TGI (SNB-19 CNS): > 100 µM
TGI (SN12C renal): > 100 µM
